From ChEMBL document CHEMBL5331145, “Discovery of a Novel Bifunctional Steroid Analog, YXG-158, as an Androgen Receptor Degrader and CYP17A1 Inhibitor for the Treatment of Enzalutamide-Resistant Prostate Cancer” (J Med Chem, 2023)
One block for each compound: values may come before it. Activity calls are given as the source filed them. The rule behind the calls is not given here.

How the values were obtained:
[1] = tested on: LNCaP; test: Antiproliferative activity against human LNCaP cells incubated for 6 days by CellTiter-Glo assay; assay type: functional, cell-based
[2] = target: Voltage-gated inwardly rectifying potassium channel KCNH2 (Homo sapiens, UniProt Q12809); test: Inhibition of human ERG by patch clamp assay; assay type: toxicity
Sequence of Voltage-gated inwardly rectifying potassium channel KCNH2 (Q12809 whole entry): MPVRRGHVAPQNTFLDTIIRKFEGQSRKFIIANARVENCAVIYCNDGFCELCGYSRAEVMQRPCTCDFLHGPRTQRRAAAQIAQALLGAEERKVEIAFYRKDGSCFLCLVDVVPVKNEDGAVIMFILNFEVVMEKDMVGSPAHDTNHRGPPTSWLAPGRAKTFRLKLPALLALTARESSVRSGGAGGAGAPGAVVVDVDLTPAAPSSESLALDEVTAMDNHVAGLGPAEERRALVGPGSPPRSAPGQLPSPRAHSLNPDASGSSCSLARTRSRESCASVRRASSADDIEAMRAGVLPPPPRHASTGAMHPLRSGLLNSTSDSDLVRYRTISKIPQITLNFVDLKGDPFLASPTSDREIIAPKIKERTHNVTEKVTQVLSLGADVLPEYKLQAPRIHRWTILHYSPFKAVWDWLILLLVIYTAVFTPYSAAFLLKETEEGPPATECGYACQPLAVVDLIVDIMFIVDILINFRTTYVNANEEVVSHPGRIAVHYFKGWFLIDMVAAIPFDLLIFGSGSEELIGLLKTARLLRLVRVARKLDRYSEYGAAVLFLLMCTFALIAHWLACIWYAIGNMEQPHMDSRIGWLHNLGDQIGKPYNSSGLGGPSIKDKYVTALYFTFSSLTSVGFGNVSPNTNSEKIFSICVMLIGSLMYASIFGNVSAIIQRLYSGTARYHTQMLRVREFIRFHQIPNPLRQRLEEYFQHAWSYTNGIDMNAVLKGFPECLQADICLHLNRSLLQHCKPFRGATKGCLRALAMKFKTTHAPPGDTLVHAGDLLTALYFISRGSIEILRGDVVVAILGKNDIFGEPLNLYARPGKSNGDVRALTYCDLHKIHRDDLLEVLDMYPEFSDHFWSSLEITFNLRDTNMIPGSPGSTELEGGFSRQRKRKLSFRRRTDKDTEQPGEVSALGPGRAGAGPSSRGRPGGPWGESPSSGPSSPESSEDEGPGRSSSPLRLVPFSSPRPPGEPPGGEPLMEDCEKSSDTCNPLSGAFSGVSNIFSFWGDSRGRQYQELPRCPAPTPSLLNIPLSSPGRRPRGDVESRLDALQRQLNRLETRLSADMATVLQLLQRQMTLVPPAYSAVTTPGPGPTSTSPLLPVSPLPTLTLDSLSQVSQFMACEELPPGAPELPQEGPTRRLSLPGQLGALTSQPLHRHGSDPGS

[3] = target: T1, Androgen receptor (Homo sapiens, UniProt P10275); test: Induction of androgen receptor degradation in human LNCaP cells incubated for 24 hrs by ELISA; assay type: cell-based
T1 sequence (P10275 whole entry): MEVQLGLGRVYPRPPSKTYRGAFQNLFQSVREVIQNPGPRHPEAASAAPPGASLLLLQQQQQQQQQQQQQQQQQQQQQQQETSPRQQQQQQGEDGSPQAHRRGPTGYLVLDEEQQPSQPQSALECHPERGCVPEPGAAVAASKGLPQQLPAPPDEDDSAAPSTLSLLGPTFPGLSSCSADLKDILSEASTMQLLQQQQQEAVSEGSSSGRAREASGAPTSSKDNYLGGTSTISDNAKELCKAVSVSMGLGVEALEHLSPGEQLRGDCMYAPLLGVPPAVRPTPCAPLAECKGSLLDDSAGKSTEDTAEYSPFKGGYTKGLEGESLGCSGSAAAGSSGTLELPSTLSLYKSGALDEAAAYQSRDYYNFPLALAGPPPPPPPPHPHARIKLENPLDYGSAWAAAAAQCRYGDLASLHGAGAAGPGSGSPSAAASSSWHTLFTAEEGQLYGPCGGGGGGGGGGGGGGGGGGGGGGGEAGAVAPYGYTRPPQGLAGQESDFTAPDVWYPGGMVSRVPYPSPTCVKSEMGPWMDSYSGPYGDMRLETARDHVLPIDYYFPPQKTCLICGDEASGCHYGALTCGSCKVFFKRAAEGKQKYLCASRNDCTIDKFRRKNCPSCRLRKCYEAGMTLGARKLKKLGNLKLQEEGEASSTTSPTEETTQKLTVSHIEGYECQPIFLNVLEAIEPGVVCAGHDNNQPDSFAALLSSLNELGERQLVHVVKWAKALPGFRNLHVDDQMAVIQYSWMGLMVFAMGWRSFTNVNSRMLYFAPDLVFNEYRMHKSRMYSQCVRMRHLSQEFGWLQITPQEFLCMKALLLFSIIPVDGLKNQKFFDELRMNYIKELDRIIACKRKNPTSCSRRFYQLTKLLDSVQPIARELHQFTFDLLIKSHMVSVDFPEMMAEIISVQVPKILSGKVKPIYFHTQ

[4] = target: T2, Androgen receptor (Homo sapiens) (UniProt P10275); test: Potency index, ratio of galeterone DC50 to test compound DC50 for induction of androgen receptor degradation in human LNCaP cells; assay type: cell-based
T2 sequence (whole entry): T1 sequence (P10275 whole entry)

[5] = target: T2, Androgen receptor (Homo sapiens); test: Induction of androgen receptor degradation in human LNCaP cells incubated for 24 hrs by Western blot analysis; assay type: cell-based; details: dose 1-20 µM
[6] = target: T2, Androgen receptor (Homo sapiens); test: Induction of androgen receptor degradation in human LNCaP cells at 20 uM incubated for 24 hrs; assay type: cell-based
[7] = target: Androgen receptor (Homo sapiens) (UniProt P10275); test: In vivo induction of androgen receptor in human LNCaP/AR cells xenografted in SCID mouse assessed as reduction in AR protein level at 30 mg/kg, po administered once daily for 28 days by ELISA; parameters: scale not given: the % may be the effect or the level left; details: time 28.0 day
[8] = target: Androgen receptor (Homo sapiens) (UniProt P10275); test: In vivo induction of androgen receptor in human LNCaP/AR cells xenografted in SCID mouse assessed as reduction in AR protein level at 10 mg/kg, po administered once daily for 28 days by ELISA; parameters: scale not given: the % may be the effect or the level left; details: time 28.0 day
[9] = tested on: LNCaP/AR; test: Antitumor activity against human LNCaP/AR cells xenografted in SCID male mouse assessed as tumor growth inhibition at 30 mg/kg, po administered once daily for 28 days and measured every 3 days; assay type: functional, organism-based; details: time 28.0 day
[10] = target: T2, Androgen receptor (Homo sapiens); test: Induction of androgen receptor degradation in human LNCaP cells assessed as reduction in AR mRNA level incubated for 24 hrs by qPCR analysis; assay type: cell-based; details: dose 1-20 µM
[11] = tested on: Mus musculus; test: In vivo induction of androgen receptor in human LNCaP/AR cells xenografted in SCID mouse assessed as reduction in PSA level at 10 to 30 mg/kg, po administered once daily for 28 days by ELISA; assay type: functional, organism-based; details: dose 10-30 mg/kg, time 28.0 day
[12] = target: T2, Androgen receptor (Homo sapiens); test: Induction of androgen receptor degradation in human VCaP cells incubated for 24 hrs by Western blot analysis; assay type: cell-based; details: dose 1-20 µM
[13] = tested on: Androgen receptor (Homo sapiens), P10275 [F877L]; test: Antagonist activity at androgen receptor F876L mutant expressed in HEK293 cells assessed as reduction in DHT-induced transcriptional activation of androgen receptor incubated for 24 hrs by Steady-Glo assay relative to control; assay type: cell-based; parameters: scale not given: the % may be the effect or the level left; details: filed as antagonist
Sequence of Androgen receptor (Homo sapiens), P10275 [F877L] (P10275 whole entry F877L): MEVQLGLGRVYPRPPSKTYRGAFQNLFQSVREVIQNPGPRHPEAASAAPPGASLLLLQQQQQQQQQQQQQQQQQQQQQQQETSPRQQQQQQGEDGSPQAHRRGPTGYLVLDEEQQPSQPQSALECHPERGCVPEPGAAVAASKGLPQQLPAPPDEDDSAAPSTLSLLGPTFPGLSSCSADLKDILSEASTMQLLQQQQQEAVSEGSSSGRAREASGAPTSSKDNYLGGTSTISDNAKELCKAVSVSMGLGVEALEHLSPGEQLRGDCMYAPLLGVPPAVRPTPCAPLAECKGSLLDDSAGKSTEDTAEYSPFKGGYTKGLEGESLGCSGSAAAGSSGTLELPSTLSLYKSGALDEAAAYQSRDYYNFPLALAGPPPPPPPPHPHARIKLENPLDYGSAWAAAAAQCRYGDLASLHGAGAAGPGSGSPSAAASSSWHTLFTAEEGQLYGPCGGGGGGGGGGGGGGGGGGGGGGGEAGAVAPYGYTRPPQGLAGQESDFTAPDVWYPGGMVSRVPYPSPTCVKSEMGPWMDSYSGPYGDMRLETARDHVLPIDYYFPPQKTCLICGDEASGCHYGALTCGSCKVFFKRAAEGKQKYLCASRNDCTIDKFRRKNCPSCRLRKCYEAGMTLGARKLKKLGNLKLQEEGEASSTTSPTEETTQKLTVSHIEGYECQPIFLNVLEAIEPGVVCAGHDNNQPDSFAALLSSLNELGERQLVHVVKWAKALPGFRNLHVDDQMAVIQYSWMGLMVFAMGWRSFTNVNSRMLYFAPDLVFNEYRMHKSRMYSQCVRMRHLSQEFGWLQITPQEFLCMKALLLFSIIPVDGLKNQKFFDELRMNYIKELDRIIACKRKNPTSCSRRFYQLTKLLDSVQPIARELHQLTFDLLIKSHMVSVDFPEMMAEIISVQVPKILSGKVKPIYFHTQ

[14] = target: T2, Androgen receptor (Homo sapiens); test: Induction of androgen receptor degradation in human 22Rv1 cells incubated for 24 hrs by Western blot analysis; assay type: cell-based; details: dose 1-20 µM
[15] = tested on: LNCaP C4-2B; test: Antitumor activity against enzalutamide resistant human LNCaP C4-2B cells xenografted in BALB/c mouse assessed as tumor growth suppression at 10 mg/kg, po administered once daily for 28 days and measured every 3 days; assay type: functional, organism-based; details: time 28.0 day
[16] = tested on: 22Rv1; test: Induction of androgen receptor splice variant 7 degradation in human 22Rv1 cells at 1 to 20 uM incubated for 24 hrs by Western blot analysis; assay type: cell-based; details: dose 1-20 µM
[17] = target: T2, Androgen receptor (Homo sapiens); test: Induction of androgen receptor degradation in human LNCaP cells at 20 uM incubated for 24 hrs in presence of MG-132; assay type: cell-based
[18] = target: T1, Androgen receptor; test: Antagonist activity at wild type androgen receptor expressed in HEK293 cells assessed as reduction in DHT-induced transcriptional activation of androgen receptor incubated for 24 hrs by Steady-Glo assay; assay type: cell-based
[19] = target: T3, Steroid 17-alpha-hydroxylase/17,20 lyase (Homo sapiens, UniProt P05093); test: Inhibition of recombinant human CYP17A1 using progesterone as substrate incubated for 5 mins in presence of NADPH by LC-MS/MS analysis; assay type: ADME
T3 sequence (P05093 whole entry): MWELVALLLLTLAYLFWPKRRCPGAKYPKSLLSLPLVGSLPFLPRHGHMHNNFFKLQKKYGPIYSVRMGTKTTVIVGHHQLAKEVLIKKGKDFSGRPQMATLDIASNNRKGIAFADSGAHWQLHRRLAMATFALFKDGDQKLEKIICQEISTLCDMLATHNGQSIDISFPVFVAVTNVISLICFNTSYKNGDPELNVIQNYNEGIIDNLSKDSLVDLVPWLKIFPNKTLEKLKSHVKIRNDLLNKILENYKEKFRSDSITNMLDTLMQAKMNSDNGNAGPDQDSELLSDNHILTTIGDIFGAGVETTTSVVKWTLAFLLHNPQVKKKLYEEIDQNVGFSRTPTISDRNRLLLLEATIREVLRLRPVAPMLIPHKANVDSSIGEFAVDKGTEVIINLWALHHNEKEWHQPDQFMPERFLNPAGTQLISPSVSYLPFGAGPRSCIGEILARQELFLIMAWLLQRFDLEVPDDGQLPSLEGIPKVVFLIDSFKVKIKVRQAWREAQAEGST

[20] = AUC(0 to t) in Sprague-Dawley rat at 10 mg/kg, po measured upto 24 hrs by LC-MS/MS analysis; assay type: ADME, organism-based; details: in vivo
[21] = Cmax in Sprague-Dawley rat at 10 mg/kg, po measured upto 24 hrs by LC-MS/MS analysis; assay type: ADME, organism-based; parameters: dose 10 mg/kg, time < 24 hrs, route po; details: in vivo
[22] = Half life in Sprague-Dawley rat at 10 mg/kg, po measured upto 24 hrs by LC-MS/MS analysis; assay type: ADME, organism-based; details: in vivo
[23] = Tmax in Sprague-Dawley rat at 10 mg/kg, po measured upto 24 hrs by LC-MS/MS analysis; assay type: ADME, organism-based; details: in vivo

IC50 [1]: 0.608 µM
Structure (SMILES): C[C@]12CC[C@H](NC(=O)c3ccnnc3)CC1=CCC1C2CC[C@]2(C)C(n3cnc(Cl)c3)=CCC12 (stereo partly specified)
IC50 [2]: 24.6 µM

IC50 [1]: 2.42 µM
Structure (SMILES): Cc1cn(C2=CCC3C4CC=C5C[C@@H](NC(=O)c6ncccn6)CC[C@]5(C)C4CC[C@]23C)cn1 (stereo partly specified)

IC50 [1]: 1.11 µM
Structure (SMILES): CC(C)(C)c1cn(C2=CCC3C4CC=C5C[C@@H](NC(=O)c6ccnnc6)CC[C@]5(C)C4CC[C@]23C)cn1 (stereo partly specified)

Structure (SMILES): Cc1cn(C2=CCC3C4CC=C5C[C@@H](NC(=O)c6ccc(C#N)cc6)CC[C@]5(C)C4CC[C@]23C)cn1 (stereo partly specified)
EC50 [3]: 1.56 µM
IC50 [1]: 0.643 µM
Ratio [4]: 2.5
IC50 [2]: > 40 µM

Structure (SMILES): Cc1cn(C2=CCC3C4CC=C5C[C@@H](NC(=O)c6ccc(F)cc6)CC[C@]5(C)C4CC[C@]23C)cn1 (stereo partly specified)
Activity [5]: Dose-Dependent Effect
Activity [6]: Active
Activity [7]: 52%
Activity [8]: 40%
Activity [9]: Active
Activity [10]: Dose-Dependent Effect
Activity [11]: Active
Activity [12]: Dose-Dependent Effect
Activity [13]: 68%
Activity [14]: Dose-Dependent Effect
Activity [15]: inactive
Activity [16]: Active
Activity [17]: inactive

IC50 [1]: 1.83 µM
Structure (SMILES): CC(O)c1cn(C2=CCC3C4CC=C5C[C@@H](NC(=O)c6ccnnc6)CC[C@]5(C)C4CC[C@]23C)cn1 (stereo partly specified)

IC50 [1]: 1.25 µM
Structure (SMILES): Cc1cn(C2=CCC3C4CC=C5C[C@@H](NC(=O)c6ccncn6)CC[C@]5(C)C4CC[C@]23C)cn1 (stereo partly specified)

IC50 [1]: 4.63 µM
Structure (SMILES): CC(C)(O)c1cn(C2=CCC3C4CC=C5C[C@@H](NC(=O)c6ccnnc6)CC[C@]5(C)C4CC[C@]23C)cn1 (stereo partly specified)

IC50 [1]: 3.65 µM
Structure (SMILES): Cc1cn(C2=CCC3C4CC=C5C[C@@H](NS(=O)(=O)c6ccc(C#N)cc6)CC[C@]5(C)C4CC[C@]23C)cn1 (stereo partly specified)

IC50 [1]: 1.49 µM
Structure (SMILES): C[C@]12CC[C@H](NC(=O)c3ccnnc3)CC1=CCC1C2CC[C@]2(C)C(n3cnc(Br)c3)=CCC12 (stereo partly specified)

Structure (SMILES): Cc1cn(C2=CCC3C4CC=C5C[C@@H](NC(=O)c6ccncc6)CC[C@]5(C)C4CC[C@]23C)cn1 (stereo partly specified)
IC50 [18]: 0.612 µM
IC50 [19]: 2.59 µM
AUCt [20]: 24800 h/ng/mL
EC50 [3]: 2.84 µM
IC50 [1]: 0.341 µM
Cmax [21]: 2670 ng/mL
half-life [22]: 2.8 h
IC50 [2]: 6.47 µM
Tmax [23]: 2.17 h

Structure (SMILES): Cc1cn(C2=CCC3C4CC=C5C[C@@H](NC(=O)c6ccc([N+](=O)[O-])cc6)CC[C@]5(C)C4CC[C@]23C)cn1 (stereo partly specified)
EC50 [3]: 2.6 µM
IC50 [1]: 0.595 µM
Ratio [4]: 2.5
IC50 [2]: > 40 µM

Structure (SMILES): C[C@]12CC[C@H](NC(=O)c3ccnnc3)CC1=CCC1C2CC[C@]2(C)C(n3cnc(C#N)c3)=CCC12 (stereo partly specified)
IC50 [1]: 0.471 µM
IC50 [2]: 2.87 µM

IC50 [1]: > 10 µM
Structure (SMILES): COc1ccc(C(=O)N[C@H]2CC[C@@]3(C)C(=CCC4C3CC[C@]3(C)C(n5cnc(C)c5)=CCC43)C2)cc1 (stereo partly specified)

Structure (SMILES): COc1cn(C2=CCC3C4CC=C5C[C@@H](NC(=O)c6ccnnc6)CC[C@]5(C)C4CC[C@]23C)cn1 (stereo partly specified)
EC50 [3]: 3.88 µM
IC50 [1]: 0.475 µM
Ratio [4]: 2.5
IC50 [2]: 856 µM
